Values quoted from earlier work as cited in patent US20040039017A1, “Urotensin-II receptor antagonists” (priority 2000, published 2004).

Test system: rat-isolated aorta
Conditions: Ames et al. Nature 1999, 401, 282

SMILES: CC(C)[C@H](NC(=O)[C@@H]1CSSC[C@H](NC(=O)[C@H](CC(=O)O)NC(=O)[C@@H]2CCCN2C(=O)[C@@H](NC(=O)[C@@H](N)CCC(=O)O)[C@@H](C)O)C(=O)N[C@@H](Cc2ccccc2)C(=O)N[C@@H](Cc2c[nH]c3ccccc23)C(=O)N[C@@H](CCCCN)C(=O)N[C@@H](Cc2ccc(O)cc2)C(=O)N1)C(=O)O [Human Urotensin-II]
- contractile activity: most potent contractile agonist identified to date
